Measured values reported in ChEMBL document CHEMBL5726285, “Tricyclic compounds as anticancer agents” (2017).

Molecular target: Bromodomain-containing protein 4 (Homo sapiens, UniProt O60885)
Test: Time Resolved Fluorescence Resonance Energy Transfer (TR-FRET) Assay: The binding of compounds to bromodomain BRD4 (44-168), BRD4 (333-460), and BRD4 (1-477 or 44-460) was assessed using a time resolved fluorescent resonance energy transfer binding assay (1), that measures the binding of a fluorescently labeled probe molecule to the bromodomain protein. The bromodomain protein, fluorescent probe molecule (either a biotinylated histone peptide or a fluorescently labeled small molecule), and dose-responded test compound are incubated together to reach thermodynamic equilibrium. In the absence of a test compound, the bromodomain and small molecule are bound, resulting in a high fluorescent signal. In the presence of a sufficient concentration of inhibitor, this intercation is disrupted resulting in a lost of fluorescent resonance energy transfer.All assay components were dissolved in buffer composition 20 mM Hepes pH 7.5, 150 mM NaCl, 5 mM DTT, 0.005% Tween 20, and 100 ug/ml BSA for BRD4 (1-477 and 44-460). The final concentrations of the bromodomain proteins are 1.6 nM BRD4(44-168), 1 nM BRD4(333-460), and 1 nM BRD4(1-477 or 44-460), and the fluorescent probe molecule is 100 nM, 50 nM, and 7.5 nM respectively. All proteins were biotinylated. A streptavidin labeled with terbium cryptate (Cisbio SA-Tb) was used as detection, and pre-mixed with the bromodomain protein at a final concentration of 0.2 nM. In some instances for BRD4 (44-460), anti-His terbium cryptate was used as a detection. 7.5 nl of dose-responded test compound or dmso vehicle (0.0375%) was pre-spotted in a black Corning 384 well plate and 10 ul each of bromodomain/detection reagent and fluorescent small molecule solution were added to the plate, and the reaction incubated for 60 min at room temperature. Plates were then read on EnVision plate reader, (λex=340 nm, acceptor λEm=520 nm, and donor λEm=615 nm, LANCE D400 mirror). Time resolved fluorescnce intensity measurements were made at both emissions, and the ratio of acceptor/donor was calculated and used for data analysis.

| Structure (SMILES) | IC50 [nM] |
| --- | --- |
| COc1nnn(C)c1-c1cnc2c3c(OC)ncc(S(C)(=O)=O)c3n([C@H](c3ccccc3)C3CCOCC3)c2c1 | < 10 |
| Cc1nnn(C)c1-c1cnc2c3c(N(C)C(C)C)ncc(S(C)(=O)=O)c3n(C(c3ccccc3)C3CCC(F)(F)CC3)c2c1 (stereo not drawn) | < 10 |
| Cc1nnn(C)c1-c1cnc2c3ccc(N4CCN(C)CC4)nc3n(C(c3ccccc3)C3CCC(F)(F)CC3)c2c1 (stereo not drawn) | < 1 |
| Cc1nnn(C)c1-c1cnc2c3c(OC(C)C)ncc(S(C)(=O)=O)c3n(C(c3ccccc3)C3CCC(F)(F)CC3)c2c1 (stereo not drawn) | < 10 |
| COC1CN(c2ncc(S(C)(=O)=O)c3c2c2ncc(-c4c(C)nnn4C)cc2n3C(c2ccccc2)C2CCC(F)(F)CC2)C1 (stereo not drawn) | < 10 |
| Cc1nnn(C)c1-c1cnc2c3c(NCC(C)C)ncc(S(C)(=O)=O)c3n(C(c3ccccc3)C3CCC(F)(F)CC3)c2c1 (stereo not drawn) | < 10 |
| Cc1nnn(C)c1-c1cnc2c3c(NC(C)C)ncc(S(C)(=O)=O)c3n(C(c3ccccc3)C3CCC(F)(F)CC3)c2c1 (stereo not drawn) | < 10 |
| CNCCN(C)c1ccc2c3ncc(-c4c(C)nnn4C)cc3n(C(c3ccccc3)C3CCC(F)(F)CC3)c2n1 (stereo not drawn) | < 10 |
